Laboratory results published in the NIST ThermoML archive (doi:10.1016/j.fluid.2010.06.020).
± gives the expanded uncertainty stated by the source.

Details: Liquid, Ebulliometric method (Recirculating still)

CCC(C)(C)O [2-methylbutan-2-ol]
Details	vapor or sublimation pressure [kPa]
335.75 K	19.33 ± 0.044
339.03 K	22.66 ± 0.046
341.93 K	26 ± 0.051
344.54 K	29.33 ± 0.056
346.91 K	32.66 ± 0.061
349.1 K	36 ± 0.066
351.52 K	40 ± 0.071
353.75 K	44 ± 0.076
355.83 K	48 ± 0.082
357.78 K	52 ± 0.087
359.9 K	56.66 ± 0.093
361.88 K	61.33 ± 0.099
364.01 K	66.66 ± 0.1
366.01 K	71.99 ± 0.11
367.9 K	77.33 ± 0.12
369.69 K	82.66 ± 0.12
371.8 K	89.33 ± 0.13
373.79 K	95.99 ± 0.14
374.56 K	98.66 ± 0.14

CCCC(C)O (stereo not given) [pentan-2-ol]
Details	vapor or sublimation pressure [kPa]
350.91 K	18.66 ± 0.041
353.74 K	21.33 ± 0.043
356.29 K	24 ± 0.047
358.61 K	26.66 ± 0.051
361.26 K	30 ± 0.055
363.69 K	33.33 ± 0.06
365.92 K	36.66 ± 0.064
368 K	40 ± 0.069
370.31 K	44 ± 0.074
372.45 K	48 ± 0.079
374.46 K	52 ± 0.084
376.35 K	55.99 ± 0.089
378.13 K	59.99 ± 0.095
380.36 K	65.33 ± 0.1
382.45 K	70.66 ± 0.11
384.42 K	75.99 ± 0.11
386.27 K	81.33 ± 0.12
388.47 K	87.99 ± 0.13
390.53 K	94.66 ± 0.13
391.32 K	97.33 ± 0.14

CC(C)C(C)O (stereo not given) [3-methyl-2-butanol]
Details	vapor or sublimation pressure [kPa]
352.84 K	28.66 ± 0.057
355.33 K	32 ± 0.06
357.63 K	35.33 ± 0.064
359.76 K	38.66 ± 0.069
361.74 K	42 ± 0.073
363.6 K	45.33 ± 0.078
365.69 K	49.33 ± 0.083
367.65 K	53.33 ± 0.088
369.5 K	57.33 ± 0.094
371.24 K	61.33 ± 0.099
372.9 K	65.33 ± 0.1
374.99 K	70.66 ± 0.11
376.95 K	75.99 ± 0.12
378.81 K	81.33 ± 0.12
380.58 K	86.66 ± 0.13
382.26 K	91.99 ± 0.14
383.87 K	97.33 ± 0.14
384.45 K	99.33 ± 0.14

CC(C)CCO [3-methylbutan-1-ol]
Details	vapor or sublimation pressure [kPa]
366.27 K	22.66 ± 0.047
369.95 K	26.66 ± 0.049
373.24 K	30.66 ± 0.055
376.14 K	34.66 ± 0.061
379.65 K	40 ± 0.067
382.78 K	45.33 ± 0.074
385.62 K	50.66 ± 0.081
388.23 K	55.99 ± 0.088
390.64 K	61.33 ± 0.095
392.88 K	66.66 ± 0.1
395.48 K	73.33 ± 0.11
397.9 K	79.99 ± 0.12
400.18 K	86.66 ± 0.12
402.32 K	93.33 ± 0.13
403.77 K	97.99 ± 0.13

CCC(O)CC [3-pentanol]
Details	vapor or sublimation pressure [kPa]
342.02 K	14.66 ± 0.035
345.41 K	17.33 ± 0.037
348.4 K	20 ± 0.041
351.07 K	22.66 ± 0.046
354.07 K	26 ± 0.05
356.77 K	29.33 ± 0.054
359.24 K	32.66 ± 0.058
360.62 K	34.66 ± 0.063
362.79 K	38 ± 0.066
364.81 K	41.33 ± 0.071
367.06 K	45.33 ± 0.076
369.16 K	49.33 ± 0.081
371.13 K	53.33 ± 0.086
372.99 K	57.33 ± 0.091
374.75 K	61.33 ± 0.096
376.95 K	66.66 ± 0.1
379.02 K	71.99 ± 0.11
380.97 K	77.33 ± 0.11
382.82 K	82.66 ± 0.12
385 K	89.33 ± 0.13
387.06 K	95.99 ± 0.13
387.65 K	97.99 ± 0.14

CCC(C)CO (stereo not given) [2-methyl-1-butanol]
Details	vapor or sublimation pressure [kPa]
345.51 K	9.333 ± 0.027
350.44 K	12 ± 0.029
354.51 K	14.66 ± 0.032
358.02 K	17.33 ± 0.037
361.8 K	20.66 ± 0.041
365.12 K	24 ± 0.046
368.62 K	28 ± 0.051
371.74 K	32 ± 0.056
374.56 K	36 ± 0.062
377.13 K	40 ± 0.067
379.5 K	44 ± 0.073
382.05 K	48.66 ± 0.078
384.41 K	53.33 ± 0.084
386.92 K	58.66 ± 0.09
389.23 K	63.99 ± 0.097
391.4 K	69.33 ± 0.1
393.43 K	74.66 ± 0.11
395.35 K	79.99 ± 0.12
397.17 K	85.33 ± 0.12
398.9 K	90.66 ± 0.13
400.96 K	97.33 ± 0.13
